According to patent US9963474B2, “Mitochondria-targeted dicarbonyl sequestering compounds” (MEDICAL RESEARCH COUNCIL, priority 2013, dated 2018):

Tests used:
BAECs [1] = assay: Quantification of MQE and QE in cells by LC-MS/MS; format: cell-based, bovine; conditions: 2 μM MitoG; for amounts of MQE and QE detected after exogenous methylglyoxal or glyoxal: 10 mM AG or 2 μM FCCP
Protocol: (A) and (B) BAECs were incubated with 2 μM MitoG for 1 h and sometimes supplemented with 10 mM AG or 2 μM FCCP. Methylglyoxal (A) or glyoxal (B) were then added, and after a further 3 h incubation the levels of MQE and QE in the cell layers were determined by LC-MS/MS relative to deuterated ISs. (C, D) BAECs were incubated in media containing low (5 mM) or high (30 mM) D-glucose with 2 μM MitoG for the times indicated. Levels of MQE (C) and QE (D) in the cell layers were determined by LC-MS/MS relative to deuterated ISs. Results are means±S.E. of four independent experiments. (E) BAECs were incubated for 4 h in the presence of 2 μM MitoG in media containing either 5 mM D-glucose (low), 30 mM D-glucose (high), 5 mM D-glucose/25 mM L-glucose (L-glucose), or 30 mM D-glucose/10 mM aminoguanidinium. Levels of MQE in the cell layers were determined by LC-MS/MS relative to deuterated ISs. (F) BAECs were incubated in media containing high (30 mM) D-glucose with 2 μM MitoG for 4 h with the indicated concentrations of the glyoxalase I inhibitor bromobenzyl glutathione cyclopentyl diester. Levels of MQE and QE in the cell layers were then determined by LC-MS/MS relative to deuterated ISs. Results are means±S.E. of three determinations. Results are means±S.E. of three (A, B) or four (C-E) independent experiments. *, P<0.05 or **, P<0.01, relative to untreated (A, B) or indicated (C-E) controls; ##, P<0.01 relative to cells treated with 250 μM 1,2-dicarbonyl.
For LC-MS/MS analysis of MitoG reaction products cells were incubated in T25 flasks (Nunc) with 2 μM MitoG at 37° C. Cell monolayers were washed (1 ml PBS), scraped into 1.5 ml PBS and pelleted by centrifugation (16,000 g for 2 min). The pellet was re-suspended in 250 μl 100% acetonitrile/0.1% spiked with deuterated internal standards (ISs) ([…] each of d15-MQE and d15-QE), vortexed and centrifuged (2×16,000 g for 15 min). Samples were dried under vacuum (Savant SpeedVac), re-suspended in 100 μl 20% acetonitrile/0.1% formic acid, vortexed, centrifuged (16,000 g for 10 min), transferred to silanised autosampler vials [Chromacol #1.5HRRV(S)], flushed and sealed under argon and then stored at −80° C. until LC-MS/MS analysis. Where specified, cells were subjected to acute glycaemia treatment and were incubated either in low glucose (5 mM D-glucose), high glucose (30 mM D-glucose), or in osmotic control medium (5 mM D-glucose+25 mM L-glucose) for 4 h.
LC-MS/MS analyses were carried out using a triple quadrupole mass spectrometer (Waters Xevo TQ-S) with an I-class Aquity LC system (Waters) attached. Samples were kept at 4° C. prior to injection by the autosampler of 10 μl into a 15 μl flow-through needle and RP-HPLC at 30° C. using a Luna 5 Phenyl-Hexyl column (1×50 mm, 5 μm; Phenomenex) with a Phenyl-Hexyl guard column (2×4 mm; Phenomenex). Buffers used were MS buffer A [0.1% (v/v) formic acid in water] and MS buffer B [95% acetonitrile/0.1% formic acid (both v/v)]. A gradient was run at […] as follows: 0-2 min—5% B; 2-3 min—5-25% B; 3-5 min—25-75% B; 5-7 min—75-100% B; 7-10 min—100% B; 10-12 min—100-5% B; 12-20 min—5% B. Eluant was diverted to waste from the mass spectrometer at 0-5 min and 16-20 min acquisition time using an in-line divert valve. […] Transitions used for quantification were as follows: MQE, 506>262; d15-MQE, 521>277; QE, 492>262 and d15-QE, 507>277. […]

[2] = test system: C57Bl6/J mice with STZ-induced Type I diabetes; assay: STZ-induced Type I diabetes mouse model, diabetic complications in the heart; format: in vivo
Protocol: To determine the effects of MitoG-amide on diabetic complications in the heart a well-established mouse model of type I diabetes was used, based on destruction of the beta-cells in the pancreas by administration of the beta-cell toxin streptozotocin (STZ; obtainable from Selleck Chemicals, Munich, Germany). Mice that were 6-7 week old C57Bl6/J mice (>20 g) were administered STZ (50 mg/kg by intraperitoneal injection) on 5 consecutive days. The death of the beta-cells and the induction of the high blood glucose associated with Type I diabetes was confirmed by weekly blood glucose tests on mice tail vein blood sample. A blood glucose level >17 mmol/l was considered diabetic. For experiments, mice were divided into three groups: (a) control; (b) STZ-induced Type I diabetes; and (c) STZ-induced Type I diabetic animals treated with MitoG-amide (10 mg/kg body weight once per day via gavage). This was repeated for 12 weeks (FIG. 13). At the end of the protocol, mice underwent cardiac magnetic resonance imaging (MRI) measurement (FIG. 14) followed by left ventricular catheter-based Pressure/Volume (P/V) measurement (FIG. 15). The MRI and P/V loop measurements were performed on the same day and the MRI volume measures were used as correction for the P/V loop.
For the cardiac magnetic resonance imaging (MRI) measurement a standard cardiac MRI protocol with a 4.7T Bruker BioSpec system was performed 24 h after surgery. Anaesthesia was induced with 3% and maintained with 1.25% isoflurane in oxygen. Temperature was monitored with a rectal probe and maintained constant via a heated water blanket, respiration was monitored using a pillow connected to a piezoelectric transducer. Electrocardiogram (ECG) signals were monitored with neonatal graphite (3M) electrodes, placed over the front left and rear right paws.
A 12 cm diameter birdcage was used to transmit the signal and a 4 channel cardiac array coil was used for signal reception. The imaging protocol consisted of scout scans followed by ECG-gated fast imaging with steady state […] (FISP) slices (repetition time/echo time TR/TE 6/2.4 ms 13-20 frames, 3.5 cm field of view (FOV), 256 matrix, 1 mm slice thickness, bandwidth 64.1 kHz, flip angle (FA) 20°, 2 sampling average [number of excitations, NEX]), in the long-axis and in the short-axis to cover the whole heart. In post processing, volumes during different phases of the ECG were delineated and integrated over whole heart using Simpson's rule. Global functional parameters were obtained including ejection fraction, the fraction of blood ejected into the circulation during one heartbeat.
For the Pressure/Volume (P/V) measurement, left ventricular catheterization via the right carotid artery was carried out using a 1.2 F pressure-catheter (Scisense Inc., London, Canada).
The results of the long-term treatment of the STZ-induced Type I diabetes administered with MitoGamide on body weight, blood glucose and heart rate were compared with placebo-treated STZ mice and controls (FIG. 16). The blood glucose was measured on whole blood using Johnson and Johnson's OneTouch® Ultra Blood Glucose Monitoring System. The heart rate was measured during use of the P/V loop catheter and recorded.
To assess the effect of MitoGamide on the well-known detrimental effects of long-term hyperglycaemia in Type I diabetes heart function was measured by MRI and by P/V loop measurement (FIG. 17). Mice that were 6-7 week old C57Bl6/J mice (>20 g) were administered STZ (50 mg/kg by intraperitoneal injection) on 5 consecutive days. The death of the beta-cells and the induction of the high blood glucose associated with Type I diabetes was confirmed by weekly blood glucose tests on mice tail vein blood sample. A blood glucose level >17 mmol/l was considered diabetic. […]

[3] = test system: RLM respiring on glutamate/malate; assay: Protection against dicarbonyl-induced respiratory depression in isolated RLM; set-up: species or system rat; conditions: 37° C.; for protection against methylglyoxal-induced respiratory depression: 0.5 mM methylglyoxal; for protection against glyoxal-induced respiratory depression: 5 mM glyoxal
Protocol: (§1) Isolated RLM respiring on glutamate/malate were incubated with MitoG, methoxyphenylenediamine (MP) or butylTPP for 2 min, followed by 0.5 mM methylglyoxal or 5 mM glyoxal for 5 min. ADP was then added and the rate of oxygen consumption monitored at 37° C. (see FIGS. 12A & 12B). C2C12 cells were pre-treated with MitoG, methoxyphenylenediamine (MP) or butylTPP for 1 h before exposure to 1 mM methylglyoxal or 5 mM glyoxal (see FIGS. 12C & 12D). Following an overnight incubation, cell survival was determined using the MTS assay. Similar experiments were conducted in BAECs pre-treated with MitoG, MP or butylTPP. For all experiments, concentrations of methylglyoxal and glyoxal used were chosen based on results from studies conducted prior to the protection assays. In these prior studies, RLM or cells were exposed to a range of dicarbonyl concentrations, and the phosphorylating rates of respiration or cell survival were evaluated. The results of these earlier experiments are shown in insets, and dicarbonyl concentrations that had caused significant respiratory depression or cell death were chosen for use in the protection assays. Data for all groups were normalized against untreated controls. For RLM, the rate of respiration by untreated controls was taken to be 100%; for cells, cell survival of untreated controls was taken to be 100%. Results are expressed as mean±S.E. of three independent experiments. MitoG was protective against methylglyoxal-induced respiratory depression and both methylglyoxal- and glyoxal-induced cell death in C2C12 cells and BAECs. […] In FIG. 12 the symbols *, ** respectively indicate that P<0.05 or P<0.01 relative to dicarbonyl-only groups; and the symbols +, ++ respectively indicate that P<0.05 or P<0.01 relative to untreated controls.

BAECs [4] = assay: Protection against dicarbonyl-induced cell death, BAECs, MTS assay; format: cell-based, bovine; conditions: pre-treated 1 h, overnight
Protocol: as §1

C2C12 cells = assay: Protection against dicarbonyl-induced cell death, C2C12, MTS assay; format: cell-based, mouse; conditions: pre-treated 1 h, overnight; for protection against methylglyoxal-induced cell death: C2C12, 1 mM methylglyoxal; for protection against glyoxal-induced cell death: C2C12, 5 mM glyoxal
Protocol: as §1

[5] = 10 mg/kg once per day via gavage, 12 weeks
[6] = MRI, 10 mg/kg once per day via gavage
[7] = P/V loop, 10 mg/kg once per day via gavage

SMILES	amounts of MQE and QE detected after exogenous methylglyoxal or glyoxal (BAECs [1])	protection against methylglyoxal-induced respiratory depression [3]	protection against glyoxal-induced respiratory depression [3]	protection against glyoxal-induced cell death (BAECs [4])	protection against methylglyoxal-induced cell death (BAECs [4])	protection against methylglyoxal-induced cell death (C2C12 cells)	protection against glyoxal-induced cell death (C2C12 cells)	further results
NC(CCC(=O)NC(CSCc1ccc(Br)cc1)C(=O)NCC(=O)OC1CCCC1)C(=O)OC1CCCC1 (centres unmarked) [bromobenzyl glutathione cyclopentyl diester]	–	–	–	–	–	–	–	amount of MQE and QE under high glucose (BAECs [1]; high glucose, 4 h, glyoxalase I inhibitor): increased
N=C(N)NN [AG, aminoguanidine]	reduced	–	–	–	–	–	–	formation of MQE under high glucose (BAECs [1]; 30 mM D-glucose/10 mM aminoguanidinium, 4 h): decreased
Nc1ccc(C(=O)NCCC[P+](c2ccccc2)(c2ccccc2)c2ccccc2)cc1N [MitoGamide, [3-(3,4′-Diaminobenzoylamino)-prop-1-yl]triphenylphosphonium m esylate]	–	–	–	–	–	–	–	effect on STZ-induced decrease in body weight [2, 5]: neither of which were affected; effect on STZ-induced increase in blood glucose [2, 5]: neither of which were affected; heart rate [2, 5]: neither STZ- or MitoGamide-treatment affected heart rate; increase in diastolic stiffness in diabetic mice ([2]; MRI-corrected P/V loops, 10 mg/kg once per day via gavage): prevented; end diastolic volume impaired by STZ [2, 6]: not ameliorated; systolic ejection fraction [2, 6]: neither STZ nor MitoGamide had any effect; increase in end diastolic pressure in diabetic mice [2, 7]: prevented; left ventricular diastolic time constant (Tau Weiss) impaired by STZ [2, 7]: not ameliorated; oxidative damage in the heart (4-hydroxynonenal staining) ([2]; heart histology, antibody against 4HNE): decreased oxidative damage
N#CC(C#N)=NNc1ccc(OC(F)(F)F)cc1 [FCCP, carbonylcyanide p-trifluoromethoxyphenylhydrazone]	reduced	–	–	–	–	–	–	formation of MQE/QE under high glucose (BAECs [1]; high glucose, with uncoupler): blocked
CCCCCCOc1ccc(N)c(N)c1 [HP, 4-Hexyloxybenzene-1,2-diamine]	–	not significantly protective	not significantly protective	not significantly protective	not significantly protective	not significantly protective	not significantly protective	–
CCCC[P+](c1ccccc1)(c1ccccc1)c1ccccc1 [ButylTPP]	–	not significantly protective	not significantly protective	not significantly protective	not significantly protective	not significantly protective	not significantly protective	–
